The source of these data is PMC12922749 (Science Advances, 2026).

pKd: −log10 of the molar value. Read-outs that look alike come from different tables or passages of the source.

Holding throughout (assay): SPR
What all share (assay type): binding

Experiment [1] concerns the target Nur77.
In experiment [2] the target is Nur77. This is another data set of the same source.
Experiment [3] deals with Nur77. This is another data set of the same source.

As usually defined, the pKd is −log10 of the Kd, conventionally taken in molar units. Higher therefore signals a small Kd.

On to `CCCCC/C=C\C[C@@H](O)/C=C/C=C\C/C=C\CCCC(=O)O` [12R-HETE], for which the pKd at Nur77 [1] was 5.84. The compound `CCCCC/C=C\C[C@H](O)/C=C/C=C\C/C=C\CCCC(=O)O` [12S-HETE] had a negative-log Kd (pKd) on Nur77 [2] of 4.86.

The compound `CCCCCCCC(=O)c1c(O)cc(O)cc1CC(=O)OCC` [Cytosporone B] gave a pKd on Nur77 [3] of 4.54.
